Test results from US20250383339A1, “DESIGN AND APPLICATION OF NOVEL LIGAND-INDUCED SPLIT-PROTEIN SYSTEMS” (ARIZONA BOARD OF REGENTS ON BEHALF OF THE UNIVERSITY OF …, priority 2022, published 2025).
Entries after “also recorded” stand apart in the source; their conditions may differ.

Experiments:
[1] = test system: split-Src controlled by the ABI/PYL CID system; assay: anti-phosphotyrosine western blot of split-Src controlled by the ABI/PYL CID system; format: cell-based; details: for phosphorylation / kinase activity of ABI/PYL split-Src with CID alone: abscisic acid CID alone
Procedure: It was hypothesized that there might be off-target kinase inhibition by ABT-263, which is not present in the other ligands tested. To interrogate this potential off-target kinase inhibition, an orthogonal split-Src construct design was employed with ABI and PYL domains and the CID, abscisic acid. The split-Src was tested as fragments without CID, fragments with CID, and fragments with CID plus ABT-263.

[2] = test system: split-Src controlled by split Bcl-xL; assay: anti-phosphotyrosine western blot of split-Src controlled by split Bcl-xL in HEK293T cells; format: cell-based, human; details: for global tyrosine phosphorylation: N-Bcl-xL 1-112 / C-Bcl-XL WT 113-209 split-Src, 10 µM ligand vs DMSO
Procedure: The most ligand-responsive fragments, N-Bcl-xL 1-112 and C-Bcl-XL WT 113-209, were cloned into existing full-length split-Src constructs. N-Bcl-xL was attached via a 25-residue linker to the N-terminus of N-Src. C-Bcl-XL WT was attached via a 25-residue linker to C-Src Y530F (FIG. 4A). Each split-kinase system was tested in HEK293T cells via transient transfection and treated with either DMSO or 10 µM of Bcl-xL ligands A-1155463, ABT-263, or ABT-737. […] More importantly, this novel CID system can likely be used in combination with the three existing CID systems to generate additional layers of control in cells for controlling pathways with externally added small molecules. For example, a split kinase and a corresponding split phosphatase may be used in conjunction with a split target protein (e.g., as described herein) to examine any given phosphorylation pathway in a cell. In some embodiments, the split target protein may be either upstream or downstream of a phosphorylation cascade (e.g., the split kinase). The aforementioned system would allow precise signaling studies to be undertaken by titration of two or more ligands (e.g., small molecules; e.g., one ligand for each split protein in the system).

Bcl-xL 209 R139A = biological target: T1, Bcl-xL 209 R139A (Homo sapiens, UniProt Q07817, R139A); assay: split-luciferase complementation assay of split Bcl-xL 209 R139A in HEK293T cells; format: cell-based; details: split-luciferase signal
T1 construct: expressed in transfected cells; host or cells: HEK293T
T1 sequence (Q07817 113-209 R139A, one chain of several): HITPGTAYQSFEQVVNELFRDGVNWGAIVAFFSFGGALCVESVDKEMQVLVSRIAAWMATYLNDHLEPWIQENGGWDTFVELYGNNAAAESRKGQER
From the text: (§1) To design split Bcl-xL, a suitable readout was required to measure successful ligand-dependent reassembly. A split-luciferase complementation assay was used, which was originally identified by rapamycin-induced complementation of FKBP and FRB. The split protein constructs were designed such that split-firefly luciferase-dependent luminescence would only be generated upon dimerization of N-Bcl-xL and C-Bcl-xL fragments […] (FIG. 2A). The split-protein constructs were created for each of the Bcl-xL split sites (FIG. 2B) and tested by transient transfection into HEK293T cells with the addition of either a Bcl-xL ligand or DMSO.
Low passage (≤25) cells were seeded onto T-75 (Fisher) flasks at 1E6 cells per mL and grown for 24 hours in complete media. […] Cells were transfected for ˜16 h, then were trypsinized and quantified. […] Cell lysis was clarified via centrifugation, and 50 μL of clarified lysate was plated per well on a white U-bottom luminescence plate. 80 μL of L-GLO was added to each well, and the plate was incubated at room temperature for 25-40 minutes before luminescence was read on a Centro XS3 LB960 (Berthold Technologies) microplate luminometer. Separately, clarified lysate was quantified using a Micro-BCA kit (Pierce), and luminescence was normalized to RLU per microgram of total protein using Microsoft Excel. […]

[3] = test system: Bcl-xL WT and Bcl-xL R139A; assay: split-luciferase assay, Bcl-xL 209 R139A side-by-side with wild-type parent; format: cell-based, human; details: α3-α4 split site, 50 nM ligand, 5 ng of each FLuc construct (FIG. 3)
Procedure: Low passage (≤25) cells were seeded onto T-75 (Fisher) flasks at 1E6 cells per mL and grown for 24 hours in complete media. Transient transfections were performed using PolyJet (SignaGen). 96-well culture plates were coated with 50 μL/well of 50 μg/mL solution of poly-D-lysine (MilliPore) and incubated at 4C overnight. Cells were transfected for ˜16 h, then were trypsinized and quantified. Cells were plated onto coated 96-well plates at 1E4 cells/well in DMEM supplemented with 0.5% v/v FBS. Treatment was dissolved in DMSO and added to a final DMSO concentration of 0.05% by volume. Cells were grown in treatment media for 24 h before being lysed with an in-house detergent-based buffer. Cell lysis was clarified via centrifugation, and 50 μL of clarified lysate was plated per well on a white U-bottom luminescence plate. 80 μL of L-GLO was added to each well, and the plate was incubated at room temperature for 25-40 minutes before luminescence was read on a Centro XS3 LB960 (Berthold Technologies) microplate luminometer. Separately, clarified lysate was quantified using a Micro-BCA kit (Pierce), and luminescence was normalized to RLU per microgram of total protein using Microsoft Excel. All data presented were plotted using Kaleidagraph (Synergy) 3.5.

Bcl-xL = Bcl-xL (Homo sapiens, UniProt Q07817); details: in the literature; cited from earlier work
Bcl-xL, sequence (Q07817 whole entry, the tested form may be a part): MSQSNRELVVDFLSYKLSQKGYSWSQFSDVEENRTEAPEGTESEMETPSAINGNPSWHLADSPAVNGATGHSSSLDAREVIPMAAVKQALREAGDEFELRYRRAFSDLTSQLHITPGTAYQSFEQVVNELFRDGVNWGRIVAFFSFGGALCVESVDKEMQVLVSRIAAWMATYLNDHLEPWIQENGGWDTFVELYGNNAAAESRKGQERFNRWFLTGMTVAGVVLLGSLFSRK

[4] = biological target: T2, C-Bcl-XL WT 113-209 split-firefly-luciferase fusion (human, UniProt Q07817 113-209); assay: split-luciferase complementation in HEK293T cells, reassembly induced by ABT-263
T2 construct: not shown: split firefly luciferase half (NFluc or CFluc) with any linker
T2 sequence (Q07817 113-209): as the sequence (Q07817 113-209 R139A, one chain of several) above, with A27R counted along it
From the text: Fold change is indicated as a measure of small-molecule dependence of the luminescence.
as §1

CC1=CC(=O)CC(C)(C)[C@@]1(O)/C=C/C(C)=C\C(=O)O [abscisic acid]
phosphorylation / kinase activity of ABI/PYL split-Src with CID alone [1]: strong phosphorylation | phosphorylation / kinase activity of ABI/PYL split-Src with CID alone ([1]; listed as ABA): turns the kinase activity on

CN(C)CC#Cc1ccc(OCCCc2sc(N3CCc4cccc(C(=O)Nc5nc6ccccc6s5)c4C3)nc2C(=O)O)c(F)c1 [A-1155463]
global tyrosine phosphorylation [2]: significant increases in global tyrosine phosphorylation | ligand-induced reassembly (induced dimerization) of Bcl-xL 209 R139A (Bcl-xL 209 R139A): did not induce significant reassembly | split-luciferase signal, difference between Bcl-xL WT and R139A in ligand-induced reassembly [3]: preferential binding for wild-type C-Bcl-XL 113-209 over the R139A mutant | binding affinity to Bcl-xL (Bcl-xL): sub-nanomolar

CN(C)CC[C@H](CSc1ccccc1)Nc1ccc(S(=O)(=O)NC(=O)c2ccc(N3CCN(Cc4ccccc4-c4ccc(Cl)cc4)CC3)cc2)cc1[N+](=O)[O-] [ABT-737]
global tyrosine phosphorylation [2]: significant increases in global tyrosine phosphorylation

CC1(C)CCC(c2ccc(Cl)cc2)=C(CN2CCN(c3ccc(C(=O)NS(=O)(=O)c4ccc(N[C@H](CCN5CCOCC5)CSc5ccccc5)c(S(=O)(=O)C(F)(F)F)c4)cc3)CC2)C1 [ABT-263]
phosphorylation / kinase turn-on of ABI/PYL split-Src on addition of ABT-263 with abscisic acid ([1]; fragments with abscisic acid CID plus ABT-263): lesser amount of kinase turn-on; also recorded: phosphorylation is slightly decreased | global tyrosine phosphorylation [2]: significant increases in global tyrosine phosphorylation | intensity of induced phosphorylation compared to A-1155463 and ABT-737 ([2]; split-Src controlled by split Bcl-xL): lower intensity of induced phosphorylation | split-luciferase signal, difference between Bcl-xL WT and R139A in ligand-induced reassembly [3]: respond similarly; also recorded: no significant difference

B1: N-Bcl-xL 1-112 split-firefly-luciferase fusion (α3-α4 split site) (other)
chain: MEDAKNIKKGPAPFYPLEDGTAGEQLHKAMKRYALVPGTIAFTDAHIEVNITYAEYFEMSVRLAEAMKRYGLNTNHRIVVCSENSLQFFMPVLGALFIGVAVAPANDIYNERELLNSMNISQPTVVFVSKKGLQKILNVQKKLPIIQKIIIMDSKTDYQGFQSMYTFVTSHLPPGFNEYDFVPESFDRDKTIALIMNSSGSTGLPKGVALPHRTACVRFSHARDPIFGNQIIPDTAILSVVPFHHGFGMFTTLGYLICGFRVVLMYRFEEELFLRSLQDYKIQSALLVPTLFSFFAKSTLIDKYDLSNLHEIASGGAPLSKEVGEAVAKRFHLPGIRQGYGLTETTSAILITPEGDDKPGAVGKVVPFFEAKVVDLDTGKTLGVNQRGELCVRGPMIMSGYVNNPEATNALIDKDGCGRGGSGGGGSGGGGSVDGGSGGQLDIMSQSNRELVVDFLSYKLSQKGYSWSQFSDVEENRTEAPEGTESEMETPSAINGNPSWHLADSPAVNGATGHSSSLDAREVIPMAAVKQALREAGDEFELRYRRAFSDLTSQL
notes: Expressed by transient transfection in HEK293T cells; also called N-Bcl-xL (aa 1-112)
binding result [4]: binds
